Measured values as given in patent US8263642B2, “Antimicrobial compounds and methods of use thereof” (Vanderbilt University, priority 2008, dated 2012).

Legend:
Assay type in all cases: cell-based, Staphylococcus aureus
[1] = tested on: hrtAB-driven expression of the xylE reporter gene; experiment: XylE reporter assay (hrtAB promoter-xylE), Newman; conditions: for XylE (0.5): level of XylE induction at 0.5 uM of the compound; for XylE (5.0): level of XylE induction at 5.0 uM of the compound; for XylE (50.0): level of XylE induction at 50.0 uM of the compound; for XylE (0.05): level of XylE induction at 0.05 uM of the compound
Summary of the method: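 S. aureus carrying hrtAB promoter-xylE fusion in pOS1 grown O/N at 37° C in TSB with chloramphenicol, lysed with lysostaphin. Lysate XylE activity read as 2-hydroxymuconic semialdehyde formation from 0.2 mM pyrocatechol (A375, every minute for 30 minutes), normalised to BCA protein; unit = 1 nmol/min/mg at 30° C.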

[2] = tested on: HssRS-dependent hrtAB expression; experiment: Luminescence-based assay to monitor HssRS-dependent hrtAB expression (phrtABlux reporter), Newman; conditions: Newman; for Luminescence: raw luminescence value obtained in a luminometer; for activation at 0.0825 µM: Staphylococcus aureus, NEWMAN, read-out: % Lumi, luminescence induced by the compound compared to the heme control (82.5 nM) in the same plate
Summary of the method: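 S. aureus Newman wild type or ΔhssR carrying a hrtAB promoter–luxCDABE reporter (phrtABlux), grown in TSB with 10 μg/ml chloramphenicol at 37 °C. Light output read against 82.5 nM heme as the in-plate positive control. Activity given as % of heme-induced luminescence.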

response regulator HssR = experiment: HssR dependence of XylE inducing activity, Newman; conditions: whether XylE inducing activity requires HssR
Experimental: With reference to Table 1, “Luminescence” refers to the raw luminescence value obtained in a luminomter. “Control (82.5 nm)” refers to the luminescence value obtained from heme at 82.5 nM as a positive control in the same plate as the experimental. “% lum” is the percentage of luminescence induced by the compound as compared to the heme control in the same plate. […] All of these assays are described in the application. […] “N/T” indicates the test was not performed. […]
S. aureus strains harboring the appropriate reporter construct were inoculated into 500 μl of TSB containing 10 μg/ml chloramphenicol in 1.5 ml tubes. Cultures were grown O/N at 37° C. with shaking. Bacteria were pelleted by centrifugation and spent medium was aspirated. The pellet was washed once with 500 μl of 20 mM potassium phosphate, pH 7.6, and resuspended in 150 μl of 100 mM potassium phosphate buffer, pH 8.0, 10% (v/v) acetone, 25 μg/ml lysostaphin. After 20 minute incubation at 37° C. and 5 minute incubation on ice, samples were centrifuged at 20,000 g for 30 minutes at 4° C. 1-10 μl of supernatant was added to a 96-well plate and 200 μl of 100 mM potassium phosphate, pH 8.0, 0.2 mM pyrocatechol was added to each well. Formation of 2-hydroxymuconic semialdehyde was tracked by measuring the absorbance at 375 nm every minute for 30 minutes on a Varian MP 50 microplate reader. Protein concentration in samples was determined by BCA (Pierce). One unit of specific activity of XylE in a sample is defined as the formation of 1 nmol of 2-hydroxymuconic semialdehyde per minute per milligram of cellular protein at 30° C. (Chien, Y., Manna, A. C., Projan, S. J., and Cheung, A. L. 1999, “SarA, a global regulator of virulence determinants in Staphylococcus aureus, binds to a conserved motif essential for sar-dependent gene regulation. J. Biol. Chem. 274, 37169-37176).

Row | SMILES | XylE (0.5) [1] | XylE (5.0) [1] | XylE (50.0) [1] | Luminescence [2] | HssR Dep (response regulator HssR) | activation at 0.0825 µM [2] [%] | XylE (0.05) [1]
1 | c1ccc(-c2ccc(CSc3nc4ccccc4[nH]3)cc2)cc1 | 0.03 | 0.08 | 11 | 1822 | + |  | 
2 | Cc1ccc(-c2nnc(SCC(=O)NC3CCCC3)nc2-c2ccc(C)cc2)cc1 | 1 | 0.5 | 0.04 | 1658 | − | 855 | 
3 | COc1ccc(CCNC(=O)C(=O)Nc2cccc(Cl)c2)cc1OC | 0.5 | 0.8 | 5 | 2830 | − | 355 | 1
4 | CC1=NN(c2ccccc2)C(=O)/C1=N\Nc1ccccc1O | 0.05 | 0.2 | 1 | 1848 | − | 60.3 | 0.07
5 | O=C(Nc1ccc(NC(=O)c2cccs2)c(Cl)c1)c1cccs1 | 0.05 | 0.9 | 0.06 | 406 | − | 111 | 0.05
6 | O=c1c2ccccc2nc(/C=C\c2ccccc2Cl)n1-c1ccccc1O | 1 | 50 | 1 | 6843 | + |  | 0.08
7 | CC(C)CSc1nnc(-c2ccccc2)c(-c2ccccc2)n1 | 0.04 | 0.07 | 1 | 1706 | + | 383 | 
8 | Cc1ccc(CSCc2ccc(C(=O)NCc3ccc(F)cc3)o2)cc1 | 0 | 3 | 5 | 1653 | + | 198 | 
9 | Cc1nc(Nc2ccc(Oc3ccccc3)cc2)c2c(C)c(C)sc2n1 | 0.6 | 0.09 | 0 | 1627 | − |  | 
10 | COC(NC(=O)Nc1nc2ccccc2s1)(C(F)(F)F)C(F)(F)F | 4 | 0.04 | 7 | 1747 | − | 280 | 
11 | CCCN1C(=O)/C(=C2/C(=O)N(CC(=O)Nc3ccc(Cl)cc3)c3ccccc32)SC1=S [drawing 28] | 0.06 | 0.07 | 0.02 | 1600 | − |  | 1
12 | CCOC(=O)c1c(NC(=O)c2ccccc2)sc(C(C)=O)c1-c1ccccc1 | 1 | 0.3 | 0.08 | 312 | − | 109 | 0.03
13 | O=C(NC(=S)Nc1ccc(-c2nc3ccccc3s2)cc1)c1ccccc1[N+](=O)[O-] [drawing 61] | 0.7 | 0.8 | 0.8 | 1794 |  |  | 0.1
14 | O=C(/C=C/c1ccc([N+](=O)[O-])s1)Nc1ccc(I)cc1 | 4 | 5 | 6 | 678 |  | 107 | 0.09
15 | O=C(COc1nsnc1N1CCOCC1)Nc1ccccc1 | 0.05 | 0.02 | 0.03 | 1594 |  | 207 | 
16 | CC(C)(C)c1cc2c(c(C(C)(C)C)c1)OC(c1cc([N+](=O)[O-])ccc1O)N2 (centres unmarked) | 0.04 | 0 | 0.04 | 1805 |  |  | 
17 | Nc1ccccc1C(=O)Nc1nc2ccc(Cl)cc2s1 | 0.01 | 0.03 | 0.04 | 1741 |  |  | 
